Source: US20250281672A1, “IDENTIFICATION OF PRO- AND ANTI-INFLAMMATORY LIPIDS RELATING TO IMMUNE RESPONSE TO MEDICAL IMPLANTS” (William Marsh Rice University, priority 2021, published 2025)

What was measured:
[1] = tested on: brain of mice; assay: 2-week PDMS pillar implantation in mouse brain; histology and immunohistochemistry; type: in vivo; conditions: PDMS pillars, 2 weeks
Method: Mouse Brain Implantation. C57BL/6J mice were allowed to acclimate for greater than one week prior to surgical manipulation. After the acclimation period, 24 hours prior to surgery, the mice were premedicated with 5 mg/kg meloxicam SC for analgesia. 30 minutes prior to surgery, the mice were given 30 mg/kg trimethoprim-sulfamethoxazole PO for antimicrobial prophylaxis. The mice were then anesthetized with 3% isoflurane with 1 L/min O2 in an induction chamber and then transferred to a nose cone with 1-3% inhaled isoflurane with 0.5 L/min O2 for maintenance anesthesia. Depth of anesthesia was monitored testing for no response to toe pinch throughout surgery. Immediately following induction, the mouse was placed on a warming pad and maintained on the warming pad throughout surgery. The fur on the mouse head was trimmed with an electric razor and topical anesthetic with 2.5% lidocaine/prilocaine cream was applied for several minutes. The mice were then given 5 mg/kg meloxicam SC and 0.1 mg/kg buprenorphine SC for analgesia. The trimmed mouse scalp was then scrubbed with 7.5% povidone-iodine solution. Sterile neoprene surgical gloves (Medichoice) and sterile autoclaved instruments were used to maintain sterile technique throughout surgery. […]

[2] = tested on: gonadal fat pads of C57BL/6 adult male mice, a pro-fibrotic mouse model; assay: 28-day implantation of functionalized PDMS disks on gonadal fat pads (IP space); gross fibrosis and histology; type: in vivo; conditions: 28 days
Method: PDMS disk/pillar preparation & functionalization. PDMS implants were made with SYLGARD™ 184 silicone elastomer by mixing the base and curing agent in a ratio of 10:1 and letting sit 24 hours at room temperature in either sheets or pillar molds. The PDMS sheets were punched with 4 mm biopsy punches to make disks, or the pillar were removed from their molds, and plasma cleaned under general atmospheric air on each side for 1 minute at high Rf, 700-800 torr. Samples were then functionalized by one of two methods: Method 1) for the methacryloyl modified Z2-Y12 and Z2-Y12 Analog, the PDMS disks were incubating in a solution of DMSO:ACN (Sigma) (60:40) overnight under nitrogen gas flow. For the methacryloyl modified Z1-Y15 (0.2M), methacryloyl Z1-Y15 was added to DMSO (0.3 w/v %) and heated to 80° C. Separately Milli-Q H2O was heated to 80° C. and added to the reaction dropwise for a final mixture of 1:4 DMSO:Milli-Q H2O. The mixture was left stirring under reduced heat 40-50° C. under high stirring conditions ([…]). PDMS sheets were added to this mixture and allowed to stir overnight under Nitrogen gas. Disks were submerged in 1×PBS and left to soak for 10 minutes. Samples were then washed 3× with 1×PBS after overnight functionalization. […] Functionalized disks were maintained at −80° C. until they were ready for implantation. […]

## NCCOCCOCCOCCn1cc(CN2CCS(=O)(=O)CC2)nn1 [Z1]
[1]
  accumulation/migration of immune cells at the implant site (immunohistochemistry): not observed
  fibrotic strands of cells at the implant site (histology): absent
[2]; PDMS disks, gonadal fat pads
  adherent peripheral tissue on disks (FBR and fibrosis): virtually no adherent peripheral tissue was found
[2]; tissue around PDMS implants
  interfacial fibrotic layer on the implant surface (histology): prevented the development of an interfacial fibrotic layer
